Source: US7705009B2, “4-aminopyrimidine-5-thione derivatives” (Hoffman-La Roche Inc., priority 2005, dated 2010)
Like-named read-outs stand apart in the source and are kept apart here.

What was measured:
[1] = target: human cyclin E-CDK2 (Homo sapiens, UniProt P24941); experiment: CDK2 HTRF kinase assay (Ki measurement); format: biochemical
Procedure: (§1) To determine inhibition of Cdk4, Cdk2 and Cdk1 activity, kinase assays were conducted using FlashPlate™ assays (NEN™-Life Science Products). FlashPlate assays were performed using recombinant human cyclin B-CDK1, human cyclin E-CDK2 or human cyclin D1-CDK4 complexes. GST-cyclinE (GST-cycE), CDK2, GST-cyclinB (GST-cycB), CDK1, GST-CDK4 and cyclin D1 (cycD1) cDNA clones in baculovirus vectors were provided by Dr. W. Harper at the Baylor College of Medicine, Houston, Tex.
(§2) Alternatively, inhibition activity may be measured using Ki. […] These were done in 96-well format and read in 384-well plate format. The assays were run at 3× their respective Kms for ATP.
(§3) Twenty microliters were added to the wells of a 96-well plate. […] Blank wells without CDK4 were included. The plates were incubated at 37° C. for 30 minutes with shaking. […] After 30 minutes at 37° C., 15 μl/well of 3 nM Lance-Eu-W1024 labeled anti-rabbit IgG and 60 nM Allophycocyanin conjugated anti-His6 (PerkinElmer Life Sciences) in 25 mM Hepes, pH 7.0, 0.5 mg/ml BSA were added. Following a one hour incubation at 37 deg C., 35 μl of each well, in duplicate, were transferred to 384-well black plates. The plates were read using either ViewLux or Victor V readers (PerkinElmer Life Sciences) using an excitation wavelength of 340 nm and dual emission wavelengths of 615 nm and 665 nm.
(§4) The CDK1 and CDK2 assays were similarly run except for small differences in reagent and protein concentrations:
The compound and enzyme buffers for both assays contained 10 mM MgCl2.

[2] = system: HCT116 colorectal carcinoma cell line; experiment: Tetrazolium dye proliferation assay (MTT assay); format: cell-based; conditions: Homo sapiens, HCT-116, HCT116 cells
Procedure: Proliferation was evaluated by the tetrazolium dye assay according to the procedure of Denizot and Lang (Denizot, F. and Lang, R. J Immunol Methods 1986, 89, 271-277). The cell line used was HCT116, a colorectal carcinoma cell line obtained from the American Type Cell Culture Collection (ATCC; Rockville, Md.). The cells were grown in McCoy's 5A medium supplemented with 10% FCS and L-glutamine.
Cells were plated at the appropriate seeding density to give logarithmic growth over the course of the assay in a 96-well tissue culture plate. Plates were incubated overnight at 37° C. in a humidified incubator with 5% CO2. The next day, test compounds were serially diluted to four times the final concentration in the appropriate medium containing 1.2% DMSO. One-fourth final volume of each dilution was added in duplicate to the plates containing cells. The same volume of 1.2% DMSO in medium was added to a row of “control wells” such that the final concentration of DMSO in each well was 0.3%. Wells to which no cells were added served as the “blank.” Wells to which no inhibitor was added served as “no inhibitor control.” The plates were) returned to the incubator, and at set time points (determined by their growth curves) plates were analyzed as described below.
3-(4,5-dimethylthiazole-2-yl)-2,5-diphenyl-2H-tetrazolium bromide (thiazolyl blue; MTT; Sigma) was added to each well to yield a final concentration of 1 mg/ml. Plates were returned to the incubator for 2.5-3 hours at 37° C. The MTT-containing medium was removed and the resulting formazan metabolite was solubilized in 100% ethanol with shaking for 15 minutes at room temperature. Absorbance readings were taken in a microtiter plate reader (Dynatech and Molecular Devices plate readers were used interchangeably) at a wavelength of 570 nm with a 650 nm reference. Percent inhibition (% INH) is calculated by subtracting the absorbance of the blank well from all wells, then subtracting the ratio of the average absorbance of each test duplicate (SAVE) by the average of the controls (CAVE) from 1.00. The final number is then multiplied by 100 (% INH=(1.00−SAVE/CAVE)×100). The concentration at which 50% inhibition of cell proliferation is obtained (the IC50) is determined from the linear regression of a plot of the logarithm of the concentration versus percent inhibition.

[3] = target: human cyclin D1-CDK4 (Homo sapiens, UniProt P11802); experiment: CDK4 HTRF kinase assay (Ki measurement); format: biochemical; conditions: ATP at 3x Km
Procedure: To determine inhibition of Cdk4, Cdk2 and Cdk1 activity, kinase assays were conducted using FlashPlateTM assays (NENTM-Life Science Products). […] W. Harper at the Baylor College of Medicine, Houston, Tex. Proteins were co-expressed in High FiveTM insect cells and the complex was purified on glutathione Sepharose resin (Pharmacia, Piscataway, N.J.) as previously described (Harper, J. W. et al. Cell 1993, 75, 805-816). A 6×-Histidine tagged […]) was used as the substrate for the cycD1-CDK4, cycB-CDK1 and the cycE-CDK2 assays (the expression plasmid was provided by Dr. Veronica Sullivan, Department of Molecular Virology, Roche Research Centre, Welwyn Garden City, United Kingdom). The Rb protein is a natural substrate for phosphorylation by CDK4, CDK2 and CDK1 (see Herwig and Strauss Eur. J. Biochem. Vol. 246 (1997) pp. 581-601 and the references cited therein). Alternatively, inhibition activity may be measured using Ki. Using the protein constructs described above in Example 19A above, CDK1, CDK2, and CDK4 HTRF assays were set up. These were done in 96-well format and read in 384-well plate format. The assays were run at 3× their respective Kms for ATP. In the CDK4 assay, test compounds were diluted to 3× their final concentrations in 25 mM Hepes, pH 7.0, 6.25 mM MgCl2, 1.5 mM DTT, 135 μM ATP. The DMSO concentration was no greater than 4.76%. Twenty microliters were added to the wells of a 96-well plate. The kinase reaction was initiated by the addition of 40 μl/well of a solution containing 0.185 μM Rb and 2.25 μg/ml CDK4 in 25 mM Hepes, pH 7.0, 6.25 mM MgCl2, 0.003% Tween-20, 0.3 mg/ml BSA, 1.5 mM DTT. Blank wells without CDK4 were included. The plates were incubated at 37° C. for 30 minutes with shaking. The kinase reaction was terminated by the addition of 15 μl/well of 1.6 uM anti-phospho-Rb ([…]) antibody (Cell Signaling Inc.) in 25 mM Hepes, pH 7.0, 24 mM EDTA, 0.2 mg/ml BSA. After 30 minutes at 37° C., 15 μl/well of 3 nM Lance-Eu-W1024 labeled anti-rabbit IgG and 60 nM Allophycocyanin conjugated anti-His6 (PerkinElmer Life Sciences) in 25 mM Hepes, pH 7.0, 0.5 mg/ml BSA were added. Following a one hour incubation at 37 deg C., 35 μl of each well, in duplicate, were transferred to 384-well black plates. The plates were read using either ViewLux or Victor V readers (PerkinElmer Life Sciences) using an excitation wavelength of 340 nm and dual emission wavelengths of 615 nm and 665 nm. IC50 values (the concentration of test compounds reducing the assay control fluorescence read-out by 50%) were first calculated from net readings at 665 nm, normalized for europium readings at 615 nm. For ATP competitive inhibitors, the Ki values were calculated according to the following equation: […]

[4] = target: human cyclin B-CDK1 (Homo sapiens, UniProt P06493); experiment: CDK1 HTRF kinase assay (Ki measurement); format: biochemical; conditions: ATP at 3x Km
Procedure: as §1, §2
as §3, with “nm. […] For ATP competitive inhibitors, the Ki values were calculated according to the following equation: Ki=IC50/(1+S/Km) where S refers to the substrate concentration and Km refers to the Michaelis-Menten constant.” for “nm.”
as §4
The compound and enzyme buffers for both assays contained 10 mM MgCl2. […] CDK1 at a reagent concentration of 0.15 ng/ul and CDK2 at a reagent concentration of 0.06 ng/ul were used.

[5] = HTRF assay, ATP at 3x Km, read-out: Ki CDK2

Sequence of human cyclin D1-CDK4 (P11802 whole entry): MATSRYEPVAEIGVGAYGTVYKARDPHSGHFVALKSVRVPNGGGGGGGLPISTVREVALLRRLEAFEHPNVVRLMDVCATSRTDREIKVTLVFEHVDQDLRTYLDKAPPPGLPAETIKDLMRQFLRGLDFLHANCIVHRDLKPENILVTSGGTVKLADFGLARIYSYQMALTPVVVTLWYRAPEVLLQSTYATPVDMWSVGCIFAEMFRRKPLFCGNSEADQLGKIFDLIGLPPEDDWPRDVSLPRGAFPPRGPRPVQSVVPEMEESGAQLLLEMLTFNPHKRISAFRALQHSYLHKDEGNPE
Sequence of human cyclin D1-CDK4 (P24385 whole entry partner): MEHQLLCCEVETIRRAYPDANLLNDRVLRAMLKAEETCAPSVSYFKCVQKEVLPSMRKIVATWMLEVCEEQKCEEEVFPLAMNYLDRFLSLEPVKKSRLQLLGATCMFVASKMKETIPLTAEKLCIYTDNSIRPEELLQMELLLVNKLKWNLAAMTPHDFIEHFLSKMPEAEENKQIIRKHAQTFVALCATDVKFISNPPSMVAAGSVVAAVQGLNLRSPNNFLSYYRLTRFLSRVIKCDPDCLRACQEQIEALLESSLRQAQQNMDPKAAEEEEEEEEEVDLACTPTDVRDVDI
Sequence of human cyclin B-CDK1 (P06493 whole entry): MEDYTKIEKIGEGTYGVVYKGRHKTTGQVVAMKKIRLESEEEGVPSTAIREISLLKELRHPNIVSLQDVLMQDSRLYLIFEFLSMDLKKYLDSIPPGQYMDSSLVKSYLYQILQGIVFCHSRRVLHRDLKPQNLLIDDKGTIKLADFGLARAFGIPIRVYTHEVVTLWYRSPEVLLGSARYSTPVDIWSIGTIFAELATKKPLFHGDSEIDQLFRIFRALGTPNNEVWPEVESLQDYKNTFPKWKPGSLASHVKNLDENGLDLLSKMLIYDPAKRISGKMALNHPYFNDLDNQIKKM
Sequence of human cyclin B-CDK1 (P14635 whole entry partner): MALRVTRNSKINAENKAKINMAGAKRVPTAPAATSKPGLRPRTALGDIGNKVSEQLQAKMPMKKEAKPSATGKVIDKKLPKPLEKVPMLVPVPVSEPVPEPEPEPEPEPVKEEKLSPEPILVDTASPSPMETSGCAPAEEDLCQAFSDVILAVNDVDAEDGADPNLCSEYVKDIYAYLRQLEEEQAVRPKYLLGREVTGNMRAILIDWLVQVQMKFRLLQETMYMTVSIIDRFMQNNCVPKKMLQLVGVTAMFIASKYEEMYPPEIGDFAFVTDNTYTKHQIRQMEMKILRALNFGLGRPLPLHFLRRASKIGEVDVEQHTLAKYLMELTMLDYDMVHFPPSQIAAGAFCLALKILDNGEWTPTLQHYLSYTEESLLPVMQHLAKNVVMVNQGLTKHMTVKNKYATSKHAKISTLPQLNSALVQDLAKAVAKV

Structure (SMILES)	Ki [1, 5]	IC50 [2]	Ki [3]	Ki [4]	Ki [1]
CS(=O)(=O)N1CCC(Nc2ncc(C(=S)c3c(Cl)ccc(F)c3F)c(N)n2)CC1 [Example 13, [4-Amino-2-(1-methanesulfonyl-piperidin-4-ylamino)-pyrimidin-5-yl]-(6-chloro-2,3-difluoro-phenyl)-methanethione]	1 nM	176 nM	3 nM	3 nM	–
CS(=O)(=O)N1CCC(Nc2ncc(C(=S)c3c(F)c(F)cc4ccoc34)c(N)n2)CC1 [Example 6, [4-Amino-2-(1-methanesulfonyl-piperidin-4-ylamino)-pyrimidin-5-yl]-(5,6-difluoro-benzofuran-7-yl)-methanethione]	0.1 nM	13 nM	0.26 nM	3 nM	–
COc1ccc(F)c(F)c1C(=S)c1cnc(NC2CCN(S(=O)(=O)c3ccccn3)CC2)nc1N [Example 10, {4-Amino-2-[1-(pyridine-2-sulfonyl)-piperidin-4-ylamino]-pyrimidin-5-yl}-(2,3-difluoro-6-methoxy-phenyl)-methanethione]	1 nM	–	–	3 nM	–
CS(=O)(=O)N1CCC(Nc2ncc(C(=S)c3c(F)cccc3F)c(N)n2)CC1 [Example 15, [4-Amino-2-(1-methanesulfonyl-piperidin-4-ylamino)-pyrimidin-5-yl]-(2,6-difluoro-phenyl)-methanethione]	–	171 nM	1 nM	3 nM	1 nM
COc1ccc(F)c(F)c1C(=S)c1cnc(NC2CCN(S(=O)(=O)CCCN3CCOCC3)CC2)nc1N [Example 9, {4-Amino-2-[1-(3-morpholin-4-yl-propane-1-sulfonyl)-piperidin-4-ylamino]-pyrimidin-5-yl}(2,3-difluoro-6-methoxy-phenyl)-methanethione]	1 nM	–	–	14 nM	–
COc1ccc(F)cc1C(=S)c1cnc(NC2CCN(C(=O)OC(C)(C)C)CC2)nc1N [Example 17, 4-[4-Amino-5-(5-fluoro-2-methoxy-thiobenzoyl)-pyrimidin-2-ylamino]-piperidine-1-carboxylic acid tert-butyl ester]	195 nM	–	–	261 nM	–
COc1ccc(F)c(F)c1C(=S)c1cnc(Nc2ccc(S(C)(=O)=O)cc2)nc1N [Example 12, [4-Amino-2-(4-methanesulfonyl-phenylamino)-pyrimidin-5-yl]-(2,3-difluoro-6-methoxy-phenyl)-methanethione]	1 nM	–	7 nM	3 nM	–
COc1ccc(F)c(F)c1C(=S)c1cnc(NC2CCN(S(C)(=O)=O)C2)nc1N (centres unmarked) [Example 18, [4-Amino-2-(1-methanesulfonyl-pyrrolidin-3-ylamino)-pyrimidin-5-yl]-(2,3-difluoro-6-methoxy-phenyl)-methanethione]	1 nM	–	2.8 nM	–	–
COc1ccc(F)cc1C(=S)c1cnc(NCCCNS(C)(=O)=O)nc1N [Example 8, N-{3-[4-Amino-5-(5-fluoro-2-methoxy-thiobenzoyl)-pyrimidin-2-ylamino]-propyl}-methanesulfonamide]	65 nM	–	37 nM	89 nM	–
COc1ccc(F)c(F)c1C(=S)c1cnc(NC2CCN(S(C)(=O)=O)CC2)nc1N [Example 1, [4-Amino-2-(1-methanesulfonyl-piperidin-4-ylamino)-pyrimidin-5-yl]-(2,3-difluoro-6-methoxy-phenyl)-methanethione]	–	20 nM	0.17 nM	0.13 nM	–
CS(=O)(=O)N1CCC(Nc2ncc(C(=S)c3c(F)c(F)cc4ncoc34)c(N)n2)CC1 [Example 7, [4-Amino-2-(1-methanesulfonyl-piperidin-4-ylamino)-pyrimidin-5-yl]-(5,6-difluoro-benzooxazol-7-yl)-methanethione]	16 nM	–	5 nM	6 nM	–
CS(=O)(=O)N1CCC(Nc2ncc(C(=S)c3cccs3)c(N)n2)CC1 [Example 11, [4-Amino-2-(1-methanesulfonyl-piperidin-4-ylamino)-pyrimidin-5-yl]-thiophen-2-yl-methanethione]	12 nM	–	10 nM	43 nM	–
CS(=O)(=O)N1CCC(Nc2ncc(C(=S)c3ccccc3)c(N)n2)CC1 [Example 16, [4-Amino-2-(1-methanesulfonyl-piperidin-4-ylamino)-pyrimidin-5-yl]-phenyl-methanethione]	10 nM	–	15 nM	27 nM	–
